Assay results published in patent US9827212B2, “Compositions and methods for treating asthma and other lung diseases” (THE TRUSTEES OF THE UNIVERSITY OF PENNSYLVANIA, priority 2010, dated 2017).
Where two headings read alike, the source gives them in different places.

What was measured:
IL-6 [1] = assay: IL-6 level in BAL fluid (ELISA); format: in vivo, mice
Protocol: (§1) Mice were sensitized by intraperitoneal (I.P.) injections of 20 μg allergen, a protein extract of the ubiquitous, airborn fungus, Aspergillus fumigatus (AF), (Bayer Pharmaceuticals), in 100 μl PBS solution containing 2 mg of alum (Imject Alum, Pierce) on days 0 and 14 and challenged on days 25, 26, and 27 with 30 μl of Af extract in PBS (25 μg) intranasally (i.n.) (FIG. 1).
(§2) The levels of cytokine secreted into the supernatants of PCLS and bronchoalveolar lavage (BAL) fluid samples were determined by ELISA according to standard protocols as previously described (Banerjee et al. 2008). The cytokine amounts were calculated from the standard curves in each plate. The limits of detection were 5 pg/ml for IL-4 and IL-6 and RANTES standards. Recombinant mouse IL-4 and IL-6 and human RANTES were used as controls.

IL-4 = IL-4 level in BAL fluid (ELISA); format: in vivo, mice
Protocol: as §1, §2

[2] = test system: mice sensitized and challenged with Aspergillus fumigatus (AF); assay: Invasive lung function (FlexiVent), methacholine challenge, Aspergillus fumigatus sensitized and challenged mice; format: in vivo; conditions: TSA 0.6 mg/kg i.p., dexamethasone 2.5 mg/kg i.p.
Protocol: as §1
(§3) Lung resistance, compliance, elastance, tissue damping, tissue elastance, and airway resistance were recorded using the FlexiVent system (SCIREQ Scientific Respiratory Equipment Inc). The FlexiVent System Overview is shown in FIG. 1B: FlexiVent is a modular, multi-functional device that performs both mechanical ventilation and detailed measurements of respiratory mechanics in subjects.
(§4) The mice were anesthetized by an I.P. injection of a Ketamine (100 mg/kg) and Xylazine (20 mg/kg) mixture. After anesthesia, a half centimeter incision was made from the rostal to caudal direction; the flap of skin was retracted and the connective tissue was dissected away, and the trachea was exposed. The trachea was then cannulated between the second and third cartilage rings with a blunt-end stub adapter. The cannula was secured with suture. The mice were next connected to the Flexivent system. All spontaneous respirations were stopped with an intramuscular injection of Pancuronium Bromide (3 mg/kg) and the mice were then mechanically ventilated at respiratory rate of 140 beats/per minute with 0.25 ml of tidal volume. The Flexivent system then briefly interrupted the mechanical ventilation to apply a test signal, or perturbation to measure the respiratory mechanics. The respiratory mechanics were then calculated from the data collected while the perturbation was applied. […] At the end of testing the mice were disconnected and processed for multiple organ, blood, and fluid removal. The mice were first exsanguinated through the optical artery. Then bronchoalveolar lavage was performed through the tracheal canula. Finally, the peritoneal and the thoracic cavity were opened, and the lungs were removed for protein and histological processing.

[3] = test system: inflammatory cells in bronchoalveolar lavage (BAL) fluid; assay: BAL cell count and differential; format: in vivo, mice
Protocol: as §1
After functional measurements were completed, lungs were lavaged with 1-ml aliquots of sterile saline through the tracheal cannula. After centrifuging (500 g for 10 min at 4° C.) the cell pellet was resuspended in RPMI. Differential cell counts were made from cytospin preparations as described (Elwood et al. 1991). Cells were identified as macrophages, eosinophils, neutrophils, and lymphocytes by standard morphology and at least 300 cells were counted under ×400 magnification. The percentage and absolute numbers of each cell type were then calculated. The supernatants were harvested and stored at −20° C. for further analysis.

IL-6 [4] = assay: IL-6 secretion from human precision cut lung slices (PCLS); format: cell-based; conditions: for inhibition of IL-6 secretion from PCLS / inhibition at 0.05 µM: TSA 10 μM or budesonide 50 nM 2 h prior; for inhibition at 0.05 µM: Homo sapiens
Protocol: (§5) FIG. 11. […] Secretion of IL-6 and RANTES was analyzed as described under materials and methods. Values shown are mean+/− s.d. from three samples.
as §2
(§6) Human lung slice preparation. Human PCLS were prepared as previously described (Cooper et al. 2008). Briefly, healthy whole human lungs were received from the NDRI, and the smallest lobe was dissected out and its main bronchus identified. The lobe was inflated using a 2% (wt/vol) low melting point agarose solution. Once the agarose had set, the lobe was sectioned, and cores of 8-mm diameter were made. The cores that contained a small airway by visual inspection were sliced at a thickness of 250 μm (Krumdieck Tissue Slicer; model no. MD4000; Alabama Research and Development) and collected in wells containing supplemented Ham's F-12 medium. Suitable airways (≦1-mm diameter) on slices were selected on the basis of the following criteria: presence of a full smooth muscle wall (i.e., cut perpendicular to direction of airway); presence of beating cilia to eliminate blood vessels; and unshared muscle walls at airway branch points to eliminate possible counteracting contractile forces. […] Adjacent slices containing contiguous segments of the same airway were paired to act as control to the variable tested and incubated at 37° C. on a rotating platform in a humidified air-CO2 (95-5%) incubator. Sections were placed in fresh media every 2-3 h during the remainder of day 1 and all of day 2 to rid the slice and media of agarose and endogenous substances released that could variably confound the production of inflammatory mediators and/or alter airway tone.
(§7) Three airways from each donor were used per condition; n values indicate the number of donors. Data are expressed as means± SEM. Statistical difference was shown by using a nonpaired t test.

[5] = test system: naïve mice challenged with methacholine; assay: Invasive lung function (FlexiVent), methacholine challenge, naïve mice; format: in vivo; conditions: dexamethasone 2.5 mg/kg i.p.
Protocol: as §3, §4

RANTES = RANTES secretion from human precision cut lung slices (PCLS); format: cell-based; conditions: for inhibition of RANTES secretion from PCLS: TSA 10 μM or budesonide 50 nM 2 h prior
Protocol: as §5, §2, §6, §7

HDAC = conditions: TSA 0.6 mg/kg i.p.
Protocol: HDAC activity was measured as described previously (Trivedi et al. 2007). […] 50 μg of total extract was incubated with HDAC assay substrate and incubated at 30° C. for 60 min. After the addition of diluted activator reagent, samples were incubated at room temperature for 15 min, and readings were taken by fluorescent microplate reader at an excitation of 360 nm and emission of 450 nm. A standard curve was performed according to the manufacturer's protocol.

[6] = mice sensitized and challenged with Aspergillus
[7] = unsensitized and unchallenged (naïve) mice
[8] = TNFα (10 ng/mL) and IFNγ (10,000 IU/mL) stimulated

For `CC(/C=C/C(=O)NO)=C\[C@@H](C)C(=O)c1ccc(N(C)C)cc1` [TSA, Trichostatin A], the “IL-6 in BAL” value (IL-6 [1]; [6]) was “little effect on cytokine secretion”, the “IL-6 in BAL” value (IL-6 [1]; [7]) was “did not increase” and the “IL-4 in BAL” value (IL-4; [6]) was “little effect on cytokine secretion”. The “IL-4 in BAL” value (IL-4; [7]) was “did not increase”, the “dynamic compliance, maximum inhibition by methacholine” value [2] was 0.008 mL/cmH2O and the “half maximal effective concentration of methacholine (airway resistance)” value [2] was 20 mg/mL. The “half maximal inhibitory concentration of methacholine on dynamic compliance” value [2] was 5 mg/mL, the BAL eosinophil counts ([3]; Aspergillus challenged mice, TSA 0.6 mg/kg i.p., dexamethasone 2.5 mg/kg i.p.) was “no effect” and the “total cell counts in BAL” value ([3]; Aspergillus sensitized and challenged mice, TSA 0.6 mg/kg i.p., dexamethasone 2.5 mg/kg i.p.) was “no effect”. For the same compound, the “percentages of inflammatory cells in the BAL” value ([3]; after allergen sensitization and challenge) was “little effect”, the “total cell counts in BAL” value ([3]; naïve mice, TSA 0.6 mg/kg i.p., dexamethasone 2.5 mg/kg i.p.) was “no significant difference in cell counts” and the “BAL macrophages, neutrophils, or lymphocytes” value ([3]; untreated mice or Aspergillus sensitized and challenged mice) was “no significant differences”. The “inhibition of IL-6 secretion from PCLS” value (IL-6 [4]; [8]) was 18.8%+/−6.8%, the “inhibition of IL-6 secretion from PCLS” value (IL-6 [4]; TNFα (10 ng/mL) stimulated) was 30.2%+/−12.5% and the “basal IL-6 secretion from PCLS” value (IL-6 [4]; unstimulated, TSA 10 μM) was “little effect on basal IL-6 secretion”. The “dynamic compliance, maximum inhibition by methacholine” value ([5]; TSA 0.6 mg/kg i.p.) was 0.032 mL/cmH2O, the “half maximal inhibitory concentration of methacholine on dynamic compliance” value ([5]; TSA 0.6 mg/kg i.p.) was 2.5 mg/mL and the “inhibition of RANTES secretion from PCLS” value (RANTES; TNFα (10 ng/mL) and IFNγ (10,000 IU/mL) induced) was 55.1%+/−7.5%. For the same compound, the “inhibition of RANTES secretion from PCLS” value (RANTES; TNFα (10 ng/mL) induced) was 50%+/−23%, the “basal RANTES secretion from PCLS” value (RANTES; unstimulated, TSA 10 μM) was “did not induce basal RANTES secretion” and the “HDAC activity in lung tissue” value (HDAC; [6]) was “effectively inhibited HDAC activity”. For the same compound, the “HDAC activity in lung tissue” value (HDAC; naïve mice) was “effectively inhibited HDAC activity”.

`CCCC1O[C@@H]2C[C@H]3[C@@H]4CCC5=CC(=O)C=C[C@]5(C)[C@H]4[C@@H](O)C[C@]3(C)[C@]2(C(=O)CO)O1` (some centres unmarked) [budesonide] gave an inhibition at 0.05 µM (IL-6 [4]; [8]) of 52.7%, an inhibition at 0.05 µM (IL-6 [4]; TNFα (10 ng/mL) stimulated) of 44.4% and an inhibition at 0.05 µM (RANTES; Homo sapiens) of 69%.

In the case of `C[C@@H]1C[C@H]2[C@@H]3CCC4=CC(=O)C=C[C@]4(C)[C@@]3(F)[C@@H](O)C[C@]2(C)[C@@]1(O)C(=O)CO` [dexamethasone], the “Emax of airway resistance in response to methacholine” value [2] was 6 cmH2O/mL, the “dynamic compliance, maximum inhibition by methacholine” value [2] was 0.005 mL/cmH2O and the “Emax of airway (lung) resistance in response to methacholine” value ([5]; TSA 0.6 mg/kg i.p. in DMSO) was 2.3 cmH2O/mL. The “dynamic compliance, maximum inhibition by methacholine” value ([5]; TSA 0.6 mg/kg i.p.) was 0.010 mL/cmH2O.
